Assay results reported in PubChem BioAssay (NCI).
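Growth conditions: 96-well plates. Treatment: test compound, 48 hours, 5 concentrations. Analysis: linear interpolation between bracketing concentrations; unreached endpoints set to highest concentration. TGI: concentration producing complete growth inhibition.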

Assays:
Experiment in all cases: NCI-60 cell line screen, 48 h
[1] = test system: CCRF-CEM leukemia
[2] = test system: MDA-MB-435
[3] = test system: SN12C renal
[4] = test system: M14 melanoma
[5] = test system: NCI-H460 lung
[6] = test system: MDA-MB-231 breast
[7] = test system: HCT-116 colon
[8] = test system: SK-MEL-28 melanoma
[9] = test system: NCI-H23 lung
[10] = test system: SF-295 CNS
[11] = test system: TK-10 renal
[12] = test system: COLO 205 colon
[13] = test system: U251 CNS
[14] = test system: SR leukemia
[15] = test system: DU-145 prostate
[16] = test system: A498 renal
[17] = test system: MCF7 breast
[18] = test system: UACC-257 melanoma
[19] = test system: A549 NSCLC
[20] = test system: SK-MEL-5 melanoma
[21] = test system: HOP-92 NSCLC
[22] = test system: MDA-N
[23] = test system: NCI-H226 lung
[24] = test system: HT29 colon
[25] = test system: UO-31 renal
[26] = test system: SNB-75 CNS
[27] = test system: NCI-H522 lung
[28] = test system: ACHN renal
[29] = test system: K-562 leukemia
[30] = test system: NCI/ADR-RES ovarian
[31] = test system: T-47D breast
[32] = test system: HCC-2998 colon
[33] = test system: MOLT-4 leukemia
[34] = test system: PC-3 prostate
[35] = test system: OVCAR-8 ovarian
[36] = test system: RXF 393 renal
[37] = test system: HS 578T breast
[38] = test system: OVCAR-3 ovarian
[39] = test system: SF-268 CNS
[40] = test system: SW-620 colon
[41] = test system: KM12 colon
[42] = test system: SNB-19 CNS
[43] = test system: HCT-15 colon
[44] = test system: OVCAR-4 ovarian
[45] = test system: LOX IMVI melanoma
[46] = test system: RPMI-8226 leukemia
[47] = test system: HOP-62 NSCLC
[48] = test system: SF-539 CNS
[49] = test system: UACC-62 melanoma
[50] = test system: MALME-3M melanoma
[51] = test system: CAKI-1 renal
[52] = test system: SK-OV-3 ovarian
[53] = test system: HL-60(TB) leukemia
[54] = test system: EKVX NSCLC
[55] = test system: 786-0 renal
[56] = test system: SK-MEL-2 melanoma
[57] = test system: IGROV1 ovarian
[58] = test system: OVCAR-5 ovarian

SMILES: C=CCNc1ccc(C)cc1
- TGI [1]: > 100 µM
- TGI [2]: > 100 µM
- TGI [3]: > 100 µM
- TGI [4]: > 100 µM
- TGI [5]: > 100 µM
- TGI [6]: > 100 µM
- TGI [7]: > 100 µM
- TGI [8]: > 100 µM
- TGI [9]: > 100 µM
- TGI [10]: > 100 µM
- TGI [11]: > 100 µM
- TGI [12]: > 100 µM
- TGI [13]: > 100 µM
- TGI [14]: > 100 µM
- TGI [15]: > 100 µM
- TGI [16]: 30.7 µM
- TGI [17]: > 100 µM
- TGI [18]: > 100 µM
- TGI [19]: > 100 µM
- TGI [20]: > 100 µM
- TGI [21]: > 100 µM
- TGI [22]: > 100 µM
- TGI [23]: > 100 µM
- TGI [24]: > 100 µM
- TGI [25]: > 100 µM
- TGI [26]: > 100 µM
- TGI [27]: > 100 µM
- TGI [28]: > 100 µM
- TGI [29]: > 100 µM
- TGI [30]: > 100 µM
- TGI [31]: > 100 µM
- TGI [32]: > 100 µM
- TGI [33]: > 100 µM
- TGI [34]: > 100 µM
- TGI [35]: > 100 µM
- TGI [36]: > 100 µM
- TGI [37]: > 100 µM
- TGI [38]: > 100 µM
- TGI [39]: > 100 µM
- TGI [40]: > 100 µM
- TGI [41]: > 100 µM
- TGI [42]: > 100 µM
- TGI [43]: > 100 µM
- TGI [44]: > 100 µM
- TGI [45]: > 100 µM

SMILES: CN1CCC(OC(=O)Oc2ccccc2)(c2ccccc2)CC1
- TGI [1]: 55.1 µM
- TGI [2]: 33.7 µM
- TGI [3]: 43.8 µM
- TGI [4]: 28.2 µM
- TGI [5]: 39.3 µM
- TGI [6]: 29.1 µM
- TGI [7]: 30.5 µM
- TGI [46]: 35.7 µM
- TGI [8]: 41.7 µM
- TGI [47]: 40.6 µM
- TGI [9]: 35.7 µM
- TGI [10]: 55.4 µM
- TGI [11]: 37.7 µM
- TGI [12]: 25.8 µM
- TGI [13]: 44.9 µM
- TGI [48]: 26.5 µM
- TGI [14]: 42.6 µM
- TGI [15]: > 100 µM
- TGI [49]: 37.6 µM
- TGI [16]: 56.4 µM
- TGI [50]: 32.5 µM
- TGI [17]: 35.1 µM
- TGI [18]: 34 µM
- TGI [19]: > 100 µM
- TGI [20]: 34.2 µM
- TGI [22]: 34.9 µM
- TGI [23]: 62.7 µM
- TGI [24]: 26 µM
- TGI [25]: 54.2 µM
- TGI [26]: 63.3 µM
- TGI [51]: > 100 µM
- TGI [27]: 49.8 µM
- TGI [52]: 52.9 µM
- TGI [28]: > 100 µM
- TGI [29]: 55.3 µM
- TGI [30]: 39.2 µM
- TGI [53]: 36.6 µM
- TGI [31]: 52.1 µM
- TGI [32]: 38.3 µM
- TGI [54]: 79.5 µM
- TGI [33]: 36.4 µM
- TGI [34]: 45.8 µM
- TGI [35]: 33 µM
- TGI [55]: > 100 µM
- TGI [36]: > 100 µM
- TGI [37]: 54.3 µM
- TGI [38]: > 100 µM
- TGI [56]: 33.2 µM
- TGI [57]: 64.5 µM
- TGI [39]: > 100 µM
- TGI [40]: 59.6 µM
- TGI [41]: 37.5 µM
- TGI [58]: 84.2 µM
- TGI [42]: 69.2 µM
- TGI [43]: 36.8 µM
- TGI [44]: 48.4 µM
- TGI [45]: 34 µM

SMILES: O=[N+]([O-])C(C(Cl)=C(Cl)Cl)=C(N1CCOCC1)N1CCOCC1
- TGI [1]: > 100 µM
- TGI [2]: > 100 µM
- TGI [3]: > 100 µM
- TGI [4]: > 100 µM
- TGI [6]: > 100 µM
- TGI [7]: > 100 µM
- TGI [46]: > 100 µM
- TGI [8]: > 100 µM
- TGI [47]: > 100 µM
- TGI [9]: > 100 µM
- TGI [10]: > 100 µM
- TGI [11]: > 100 µM
- TGI [12]: > 100 µM
- TGI [13]: > 100 µM
- TGI [48]: > 100 µM
- TGI [15]: > 100 µM
- TGI [49]: > 100 µM
- TGI [16]: > 100 µM
- TGI [50]: > 100 µM
- TGI [18]: > 100 µM
- TGI [19]: > 100 µM
- TGI [20]: > 100 µM
- TGI [22]: > 100 µM
- TGI [23]: > 100 µM
- TGI [24]: > 100 µM
- TGI [25]: > 100 µM
- TGI [26]: > 100 µM
- TGI [51]: > 100 µM
- TGI [27]: > 100 µM
- TGI [52]: > 100 µM
- TGI [28]: > 100 µM
- TGI [29]: > 100 µM
- TGI [53]: > 100 µM
- TGI [31]: > 100 µM
- TGI [32]: > 100 µM
- TGI [54]: > 100 µM
- TGI [33]: > 100 µM
- TGI [34]: > 100 µM
- TGI [35]: > 100 µM
- TGI [55]: > 100 µM
- TGI [36]: > 100 µM
- TGI [37]: > 100 µM
- TGI [38]: > 100 µM
- TGI [56]: > 100 µM
- TGI [57]: > 100 µM
- TGI [39]: > 100 µM
- TGI [41]: > 100 µM
- TGI [58]: > 100 µM
- TGI [42]: > 100 µM
- TGI [43]: > 100 µM
- TGI [44]: > 100 µM
- TGI [45]: > 100 µM

SMILES: O=[N+]([O-])c1ccccc1N=Nc1c(O)sc2ccccc12
- TGI [1]: > 100 µM
- TGI [2]: > 100 µM
- TGI [4]: > 100 µM
- TGI [5]: > 100 µM
- TGI [7]: > 100 µM
- TGI [46]: > 100 µM
- TGI [8]: > 100 µM
- TGI [47]: > 100 µM
- TGI [9]: > 100 µM
- TGI [10]: > 100 µM
- TGI [11]: > 100 µM
- TGI [12]: > 100 µM
- TGI [13]: > 100 µM
- TGI [48]: > 100 µM
- TGI [14]: > 100 µM
- TGI [15]: > 100 µM
- TGI [49]: > 100 µM
- TGI [16]: > 100 µM
- TGI [50]: > 100 µM
- TGI [17]: > 100 µM
- TGI [18]: > 100 µM
- TGI [19]: > 100 µM
- TGI [20]: > 100 µM
- TGI [21]: > 100 µM
- TGI [22]: > 100 µM
- TGI [23]: > 100 µM
- TGI [24]: > 100 µM
- TGI [25]: > 100 µM
- TGI [26]: 79.5 µM
- TGI [51]: > 100 µM
- TGI [27]: > 100 µM
- TGI [52]: > 100 µM
- TGI [28]: > 100 µM
- TGI [29]: > 100 µM
- TGI [53]: > 100 µM
- TGI [31]: > 100 µM
- TGI [32]: > 100 µM
- TGI [54]: > 100 µM
- TGI [33]: > 100 µM
- TGI [34]: > 100 µM
- TGI [35]: > 100 µM
- TGI [37]: > 100 µM
- TGI [38]: > 100 µM
- TGI [56]: > 100 µM
- TGI [57]: > 100 µM
- TGI [39]: > 100 µM
- TGI [40]: > 100 µM
- TGI [41]: > 100 µM
- TGI [58]: > 100 µM
- TGI [42]: > 100 µM
- TGI [43]: > 100 µM
- TGI [44]: 98.4 µM
- TGI [45]: > 100 µM
